# From US20200077655A1, “Use of an Acyclic Picolinamide Compound as a Fungicide for Control of Phytopathogenic Fungi in Orchard, Vineyard and Plantation Crops” (Dow AgroSciences LLC, priority 2017, published 2020)
# Assays:
# Assay type in all cases: in vivo
# [1] = system: Stigmina carpophila (STIGCA); assay: Field assessment of shot hole in almond, leaf and nut incidence; settings: for Leaf Incidence of STIGCA 121 DAAA: untreated 3.1; for Nut Incidence of STIGCA 121 DAAA: untreated 6.3
# Text: A fungicidal treatment containing Compound I, applied in an SC formulation (MSO built-in) and tank mixed with an adjuvant (Adsee C80W 80%), was sprayed on almond trees (PRNDU, Butte variety), 2 applications, […] The experimental plots were run under natural infestation. The treatment was part of an experimental trial designed as a randomized complete block (RCB) with three replications and a plot of approximately 16×22 ft. Compound I was applied at water volume of 100 gal/acre, using a motorized backpack sprayer (Orifice nozzle 2.3 setting).
# Leaf incidence (number of visual diseased leaves per 20 leaves per tree on the whole plot) was assessed 121 days after application A (121 DAAA).
# Nut incidence (number of visual diseased nuts per 10 nuts per tree on the whole plot) was assessed 121 days after application A (121 DAAA).
# Alternaria mali (ALTEMA) = assay: Field assessment of leaf spot of apple, protectant and curative trials
# Method: Assessment of compound I on leaf spot of apple (ALTEMA), in both protectant and curative fashion, was performed in two separate field trials. For the protectant trial, a fungicidal treatment containing a 10% SC formulation of Compound I, either alone or with an adjuvant (Agnique BP420, 50% w/w at 0.3% v/v; or ETHOMEEN T18H, 50% w/w at 0.2% v/v), was sprayed on the plant canopy of apple trees (Hongxing variety) six times during the growing season of apples with each application coming at 15 day intervals. Formulations of Compound I, with or without adjuvants, were applied at rates of 100, 125 and 150 grams of active ingredient per hectare (g ai/ha) and were applied at water volume of 4500 L/ha. The experimental plots were inoculated three times with the leaf spot pathogen, the first inoculation performed at 2 days after the first application (Application A, 2DAAA), with the following applications at 2DAAC and 2DAAD. The treatment was part of an experimental trial designed as a randomized complete block with three replications and a plot size of 3 trees.
# For the curative trial, a fungicidal treatment containing a 10% SC formulation of Compound I, either alone or with an adjuvant (Agnique BP420, 50% w/w at 0.3% v/v; or ETHOMEEN T18H, 50% w/w at 0.2% v/v), was sprayed on the plant canopy of apple trees (Hongxing variety) six times during the growing season of apples with each application coming at 15 day intervals. Formulations of Compound I, with or without adjuvants, were applied at rates of 100, 125 and 150 grams of active ingredient per hectare (g ai/ha) and were applied at water volume of 4500 L/ha. The experimental plots were inoculated three times with the leaf spot pathogen, the first inoculation performed at 5 days before the first application. The second inoculation was at 5 days before the third application and the third inoculation coming at 5 days before the fourth application. The treatment was part of an experimental trial designed as a randomized complete block with three replications and a plot size of 3 trees.
# Disease incidence was assessed as percentage of diseased foliage per plant. Apple leaf spot infection was assessed six times, with the last assessment coming at 90 days after the first application. Area under the disease progress curve (AUDPC) was calculated for each plot using the sets of recorded visual infection data. Relative AUDPC (% control based on AUDPC) was calculated as percent of the nontreated control.
# Venturia pyrina (VENTPI) = assay: Field assessment of pear scab; settings: pears, 15 days after final application
# Text: A 10% SC formulation of Compound I was tank mixed with three different adjuvants: Agnique BP420 (50% w/w at 0.3% v/v), Ethomeen T18H (50% w/w at 0.15% v/v) and Trycol (50% w/w at 0.3% v/v). Formulations of compound I were sprayed on the plant canopy of pear trees (Highland variety) of approximately 2.5 m in height at rates of 100, 150 and 200 grams of active ingredient per hectare (g ai/ha). The trial was based on six foliar applications during the growing season at approximately 12 day intervals with natural pear scab and sooty mold infections in open field conditions. The treatment was part of an experimental trial designed as a randomized complete block with four replications and a plot of approximately 3×5 m. Formulations of compound I were applied with a SOLO mistblower sprayer at a water volume of 1500 L/ha.
# For VENTPI evaluation, percent control was calculated based on incidence and severity in fruit assessment vs the nontreated control on a random selection of 50 fruits per plot. For CAPDSP assessment, percent control was calculated from percent leaf severity using Abbotts and the nontreated control. Percent control for both diseases was calculated at 11DAAE, 7DAAF and 15DAAF.
# [2] = 120 g ai/ha, Adsee C80W, 300 g ai/ha
# [3] = 100 g ai/ha, adjuvant ETHOMEEN, 10% SC
# [4] = 100 g ai/ha, adjuvant None, 10% SC
# [5] = 125 g ai/ha, adjuvant Agnique BP420, 10% SC
# [6] = 125 g ai/ha, adjuvant ETHOMEEN, 10% SC
# [7] = 150 g ai/ha, adjuvant ETHOMEEN, 10% SC
# [8] = 100 g ai/ha, adjuvant Agnique BP420 (first such line, r11)
# [9] = 100 g ai/ha, adjuvant Agnique BP420 (second such line, r13)
# [10] = 200 g ai/ha, adjuvant Agnique BP420
compound,measurement,setting,value
"COc1ccnc(C(=O)N[C@@H](C)C(=O)O[C@@H](C)C(c2ccc(F)cc2)c2ccc(F)cc2)c1OC(C)=O [Compound I, (S)-1,1-bis(4-fluorophenyl)propan-2-yl (3-acetoxy-4-methoxypicolinoyl)-L-alaninate]",Leaf Incidence of STIGCA 121 DAAA,"[1]; 60 g ai/ha, MSO, 120 g ai/ha",3.0 Number of Leaves per 20 Leaves
same,Nut Incidence of STIGCA 121 DAAA,"[1]; 60 g ai/ha, MSO, 120 g ai/ha",5.6 Number of Nuts per 10 Nuts
same,Leaf Incidence of STIGCA 121 DAAA,[1]; [2],1.4 Number of Leaves per 20 Leaves
same,Nut Incidence of STIGCA 121 DAAA,[1]; [2],2.5 Number of Nuts per 10 Nuts
same,Leaf Incidence of STIGCA 121 DAAA,"[1]; 120 g ai/ha, MSO, 240 g ai/ha",2.2 Number of Leaves per 20 Leaves
same,Nut Incidence of STIGCA 121 DAAA,"[1]; 120 g ai/ha, MSO, 240 g ai/ha",6.0 Number of Nuts per 10 Nuts
same,Leaf Incidence of STIGCA 121 DAAA,"[1]; 150 g ai/ha, MSO, 300 g ai/ha",1.7 Number of Leaves per 20 Leaves
same,Nut Incidence of STIGCA 121 DAAA,"[1]; 150 g ai/ha, MSO, 300 g ai/ha",4.4 Number of Nuts per 10 Nuts
same,Leaf Incidence of STIGCA 121 DAAA,"[1]; 180 g ai/ha, MSO, 360 g ai/ha",1.9 Number of Leaves per 20 Leaves
same,Nut Incidence of STIGCA 121 DAAA,"[1]; 180 g ai/ha, MSO, 360 g ai/ha",4.4 Number of Nuts per 10 Nuts
same,"% Control Curative (AUDPC, leaf infection)",Alternaria mali (ALTEMA); [3],A (76-100)
same,"% Control Protectant (AUDPC, leaf infection)",Alternaria mali (ALTEMA); [3],A (76-100)
same,"% Control Curative (AUDPC, leaf infection)",Alternaria mali (ALTEMA); [4],B (51-75)
same,"% Control Protectant (AUDPC, leaf infection)",Alternaria mali (ALTEMA); [4],B (51-75)
same,"% Control Curative (AUDPC, leaf infection)",Alternaria mali (ALTEMA); [5],A (76-100)
same,"% Control Protectant (AUDPC, leaf infection)",Alternaria mali (ALTEMA); [5],A (76-100)
same,"% Control Curative (AUDPC, leaf infection)",Alternaria mali (ALTEMA); [6],A (76-100)
same,"% Control Protectant (AUDPC, leaf infection)",Alternaria mali (ALTEMA); [6],A (76-100)
same,"% Control Curative (AUDPC, leaf infection)",Alternaria mali (ALTEMA); [7],A (76-100)
same,"% Control Protectant (AUDPC, leaf infection)",Alternaria mali (ALTEMA); [7],A (76-100)
same,"Percent control VENTPI, incidence in fruit assessment",Venturia pyrina (VENTPI); [8],B (51-75)
same,"Percent control VENTPI, severity in fruit assessment",Venturia pyrina (VENTPI); [8],B (51-75)
same,"Percent control VENTPI, incidence in fruit assessment",Venturia pyrina (VENTPI); [9],B (51-75)
same,"Percent control VENTPI, severity in fruit assessment",Venturia pyrina (VENTPI); [9],A (76-100)
same,"Percent control VENTPI, incidence in fruit assessment","Venturia pyrina (VENTPI); 100 g ai/ha, adjuvant ETHOMEEN",C (26-50)
same,"Percent control VENTPI, severity in fruit assessment","Venturia pyrina (VENTPI); 100 g ai/ha, adjuvant ETHOMEEN",B (51-75)
same,"Percent control VENTPI, incidence in fruit assessment","Venturia pyrina (VENTPI); 100 g ai/ha, adjuvant None",C (26-50)
same,"Percent control VENTPI, severity in fruit assessment","Venturia pyrina (VENTPI); 100 g ai/ha, adjuvant None",B (51-75)
same,"Percent control VENTPI, incidence in fruit assessment","Venturia pyrina (VENTPI); 100 g ai/ha, adjuvant Trycol",B (51-75)
same,"Percent control VENTPI, severity in fruit assessment","Venturia pyrina (VENTPI); 100 g ai/ha, adjuvant Trycol",B (51-75)
same,"Percent control VENTPI, incidence in fruit assessment",Venturia pyrina (VENTPI); [10],B (51-75)
same,"Percent control VENTPI, severity in fruit assessment",Venturia pyrina (VENTPI); [10],B (51-75)
